Data as given in US7384927B2, “Alkylated porphyrins as pesticides acting both in the presence and absence of light” (priority 2003, dated 2008).

What was measured:
Assay type in all cases: in vivo
Ceratitis capitata flies [1] = experiment: Photoinsecticidal action: fly survival after bait and visible light irradiation (artificial lamp); conditions: for Survival (% of control untreated flies): survival 10 h after irradiation
Protocol: (§1) Porphyrins: • a) meso[tri(N-methyl-pyridyl), mono(N-dodecyl-pyridyl)]porphine (abbr.: C12) • b) meso[tri(N-methyl-pyridyl), mono(N-tetradecyl-pyridyl)]porphine (abbr.: C14) • c) meso[tri(N-methyl-pyridyl), mono(N-octadecyl-pyridyl)]porphine (abbr.: C18) Bait: Aqueous solution containing 10% sucrose and 1% autolysed yeast Flies: • a) Ceratitis capitata (fruit fly) age: 1 week; weight: 5-6 mg • b) Bactrocera oleae (olive fly) age: 10 days; weight: 4-4.5 mg • c) Stomoxis calcitrans (stable fly) age: 10 days; weight: 12 mg Irradiation: • a) High pressure halogen lamp, equipped with infrared and UV filters, emission 360-850 nm, operated at intensities in the 760-2,000 μE s^−1m^−2 range • b) Sunlight, mid June at Padua latitude, average intensity of […] μE s^−1m^−2 with minimum and maximum values of 950 and, respectively, 1,380 μE s^−1m^−2
The irradiations were performed for 1 h, then the flies were kept in dim light for monitoring the survival. Control flies were irradiated under identical conditions after feeding with a porphyrin-free bait.
The irradiations were performed for 1 h at a fluence-rate of 1220 μE s^−1m^−2. The survival was evaluated 10 h after the end of irradiation. […] The porphyrins are abbreviated as following: HP: haematoporphyrin; C1: meso-tetra(N-methyl-pyridyl)porphine.
The survival was evaluated 10 h after the end of irradiation.
An appropriate number of flies (50 flies per each experiment) was caged in 115×55×70 mm Plexiglas cages with several holes (ø=0.5 mm) and starved for 36 h. Then, depending on the protocol to be adopted for each specific experiment, the flies were fed with the bait (10% sucrose and 1% autolysed yeast in neutral aqueous solution), which was either porphyrin-free or added with a predetermined concentration of the porphyrin. These flies were then used in the various experimental sessions. […]

Bactrocera oleae flies = experiment: Insecticidal action in the dark: fly survival after porphyrin bait; conditions: fed 24 h, survival 12 h after change to porphyrin-free bait
Protocol: (§2) These flies were then used in the various experimental sessions. […] The number of survivors was evaluated 12 h after switching from administration of a porphyrin-containing bait to a porphyrin-free bait. In none of the experiments was mortality or any apparent toxic effect observed in control flies (flies not fed with porphyrin, see survival at 0 μM porphyrin concentration).

[2] = system: Stomoxis calcitrans flies; experiment: as above; conditions: fed 24 h, survival 12 h after change to porphyrin-free bait
Protocol: as §2

Ceratitis capitata flies [3] = experiment: as above; conditions: dark, fed 24 h, survival 12 h after change to porphyrin-free bait
Protocol: as §2, with “For comparison, data obtained with two conventional porphyrins (as those described in WO 97/29637) offered to the insects for 24 h at a 3.0 and 8.1 μmolar concentration in the same bait are also shown. In all cases, the survival was determined 12 hours after changing food supply from a porphyrin-containing to a porphyrin-free bait. […] These” for “These”

[4] = system: Stomoxis calcitrans (stable fly); experiment: Uptake of alkylated porphyrins by flies fed porphyrin-containing bait; conditions: S. calcitrans
Protocol: as §1
(§3) An appropriate number of flies (50 flies per each experiment) was caged in 115×55×70 mm Plexiglas cages with several holes (ø=0.5 mm) and starved for 36 h. Then, depending on the protocol to be adopted for each specific experiment, the flies were fed with the bait (10% sucrose and 1% autolysed yeast in neutral aqueous solution), which was either porphyrin-free or added with a predetermined concentration of the porphyrin. These flies were then used in the various experimental sessions.
(§4) At predetermined times, the flies were sacrificed by freezing; the dead flies were then homogenized with a Polytron in 10 ml of a 2% aqueous solution of sodium dodecylsulphate (SDS). The suspension was centrifuged for 10 min at 2,000 rpm, the pellet was discarded and known aliquots of the supernatant were diluted by means of a chloroform/methanol binary mixture (1/2, v/v). The porphyrin concentration was measured by reading the fluorescence emitted at wavelengths above 630 nm and interpolating the emission intensity with a calibration plot obtained with known amounts of the porphyrin. The results were expressed as nanomoles of porphyrin recovered per fly.

[5] = system: Bactrocera oleae (olive fly); experiment: as above; conditions: B. oleae
Protocol: as §1, §3, §4

[6] = system: Ceratitis capitata (fruit fly); experiment: as above; conditions: C. capitata
Protocol: as §1, §3, §4

Ceratitis capitata flies [7] = experiment: Photoinsecticidal action: fly survival after bait and sunlight irradiation; conditions: 3 μM in bait, 12 h after feeding, survival 1 h after irradiation
Protocol: as §1
The survival was evaluated 1 h after the end of irradiation.
as §3

[8] = exposure time to bait 3 h, porphyrin in bait 1.24 μM
[9] = exposure time to bait 12 h, porphyrin in bait 1.24 μM
[10] = exposure time to bait 24 h, porphyrin in bait 1.24 μM
[11] = porphyrin concentration in bait 0.75 (μmoles), feeding 24 h
[12] = porphyrin concentration in bait 1.25 (μmoles), feeding 24 h
[13] = porphyrin concentration in bait 2.10 (μmoles), feeding 24 h
[14] = porphyrin concentration in bait 3.50 (μmoles), feeding 24 h
[15] = porphyrin concentration in bait 6.00 (μmoles), feeding 24 h

CCCCCCCCCCCCCC[n+]1ccc(-c2c3nc(c(-c4cc[n+](C)cc4)c4ccc([nH]4)c(-c4cc[n+](C)cc4)c4nc(c(-c5cc[n+](C)cc5)c5ccc2[nH]5)C=C4)C=C3)cc1 [C14, meso[tri(N-methyl-pyridyl), mono(N-tetradecyl-pyridyl)]porphine]
Survival (% of control untreated flies) (Ceratitis capitata flies [1]; 3 μM in bait 24 h, time interval feeding-irradiation 0 h, irradiation 1 h at 1220 μE s^−1m^−2): 0 % of control untreated flies
Survival (% of control untreated flies) (Ceratitis capitata flies [1]; 3 μM in bait 24 h, time interval feeding-irradiation 12 h, irradiation 1 h at 1220 μE s^−1m^−2): 0 % of control untreated flies
Survival (% of control untreated flies) (Ceratitis capitata flies [1]; 3 μM in bait 24 h, time interval feeding-irradiation 24 h, irradiation 1 h at 1220 μE s^−1m^−2): 10 % of control untreated flies
Survival (% of control untreated flies) (Ceratitis capitata flies [1]; 3 μM in bait 24 h, time interval feeding-irradiation 48 h, irradiation 1 h at 1220 μE s^−1m^−2): 21 % of control untreated flies
Survival (% of control untreated flies) (Ceratitis capitata flies [1]; 3 μM in bait, fluence-rate 760 μE s^−1m^−2, irradiated 24 h after feeding (title)): 10 % of control untreated flies
Survival (% of control untreated flies) (Ceratitis capitata flies [1]; 3 μM in bait, fluence-rate 1220 μE s^−1m^−2, irradiated 24 h after feeding (title)): 0 % of control untreated flies
Survival (% of control untreated flies) (Ceratitis capitata flies [1]; 3 μM in bait, fluence-rate 1500 μE s^−1m^−2, irradiated 24 h after feeding (title)): 0 % of control untreated flies
Survival (% of control untreated flies) (Ceratitis capitata flies [1]; 3 μM in bait, fluence-rate 2000 μE s^−1m^−2, irradiated 24 h after feeding (title)): 0 % of control untreated flies
time by which essentially all flies died (Ceratitis capitata flies [1]; after 1 h illumination with artificial light or sunlight): ≤ 45 min
photoinsecticidal action compared among alkylated porphyrins (Ceratitis capitata flies [1]; irradiation with visible light or sunlight): most efficient insecticidal action
Survival (% of control untreated flies) (Bactrocera oleae flies; 0.75 μM in bait): 100 % of control untreated flies
Survival (% of control untreated flies) (Bactrocera oleae flies; 1.25 μM in bait): 100 % of control untreated flies
Survival (% of control untreated flies) (Bactrocera oleae flies; 2.10 μM in bait): 69 % of control untreated flies
Survival (% of control untreated flies) (Bactrocera oleae flies; 3.00 μM in bait): 50 % of control untreated flies
Survival (% of control untreated flies) (Bactrocera oleae flies; 5.00 μM in bait): 37 % of control untreated flies
Survival (% of control untreated flies) (Bactrocera oleae flies; 8.10 μM in bait): 19 % of control untreated flies
Survival (% of control untreated flies) ([2]; 0.75 μM in bait): 100 % of control untreated flies
Survival (% of control untreated flies) ([2]; 1.25 μM in bait): 77 % of control untreated flies
Survival (% of control untreated flies) ([2]; 2.10 μM in bait): 52 % of control untreated flies
Survival (% of control untreated flies) ([2]; 3.00 μM in bait): 31 % of control untreated flies
Survival (% of control untreated flies) ([2]; 5.00 μM in bait): 11 % of control untreated flies
Survival (% of control untreated flies) ([2]; 8.10 μM in bait): 3 % of control untreated flies
Survival (% of control untreated flies) (Ceratitis capitata flies [3]; 0.75 μM in bait): 100 % of control untreated flies
Survival (% of control untreated flies) (Ceratitis capitata flies [3]; 1.25 μM in bait): 51 % of control untreated flies
Survival (% of control untreated flies) (Ceratitis capitata flies [3]; 2.10 μM in bait): 38 % of control untreated flies
Survival (% of control untreated flies) (Ceratitis capitata flies [3]; 3.00 μM in bait): 21 % of control untreated flies
Survival (% of control untreated flies) (Ceratitis capitata flies [3]; 5.00 μM in bait): 14 % of control untreated flies
Survival (% of control untreated flies) (Ceratitis capitata flies [3]; 8.10 μM in bait): 9 % of control untreated flies
Recoveries (nmoles of porphyrin per fly) [4, 8]: 2.4 nmoles of porphyrin per fly
Recoveries (nmoles of porphyrin per fly) [4, 9]: 5.6 nmoles of porphyrin per fly
Recoveries (nmoles of porphyrin per fly) [4, 10]: 6.2 nmoles of porphyrin per fly
Recoveries (nmoles of porphyrin per fly) [4, 11]: 4.1 nmoles of porphyrin per fly
Recoveries (nmoles of porphyrin per fly) [4, 12]: 6.2 nmoles of porphyrin per fly
Recoveries (nmoles of porphyrin per fly) [4, 13]: 10.2 nmoles of porphyrin per fly
Recoveries (nmoles of porphyrin per fly) [4, 14]: 12.5 nmoles of porphyrin per fly
Recoveries (nmoles of porphyrin per fly) [4, 15]: 12.8 nmoles of porphyrin per fly
Recoveries (nmoles of porphyrin per fly) [5, 8]: 2.2 nmoles of porphyrin per fly
Recoveries (nmoles of porphyrin per fly) [5, 9]: 3.7 nmoles of porphyrin per fly
Recoveries (nmoles of porphyrin per fly) [5, 10]: 4.8 nmoles of porphyrin per fly
Recoveries (nmoles of porphyrin per fly) [5, 11]: 3.9 nmoles of porphyrin per fly
Recoveries (nmoles of porphyrin per fly) [5, 12]: 4.8 nmoles of porphyrin per fly
Recoveries (nmoles of porphyrin per fly) [5, 13]: 8.5 nmoles of porphyrin per fly
Recoveries (nmoles of porphyrin per fly) [5, 14]: 10.6 nmoles of porphyrin per fly
Recoveries (nmoles of porphyrin per fly) [5, 15]: 13.8 nmoles of porphyrin per fly
Recoveries (nmoles of porphyrin per fly) [6, 8]: 2.9 nmoles of porphyrin per fly
Recoveries (nmoles of porphyrin per fly) [6, 9]: 5.3 nmoles of porphyrin per fly
Recoveries (nmoles of porphyrin per fly) [6, 10]: 5.7 nmoles of porphyrin per fly
Recoveries (nmoles of porphyrin per fly) [6, 11]: 2.6 nmoles of porphyrin per fly
Recoveries (nmoles of porphyrin per fly) [6, 12]: 5.7 nmoles of porphyrin per fly
Recoveries (nmoles of porphyrin per fly) [6, 13]: 9.6 nmoles of porphyrin per fly
Recoveries (nmoles of porphyrin per fly) [6, 14]: 11.5 nmoles of porphyrin per fly
Recoveries (nmoles of porphyrin per fly) [6, 15]: 14.0 nmoles of porphyrin per fly
Survival (% of control untreated flies) (Ceratitis capitata flies [7]; sunlight (average 1150 μE s^−1m^−2) 15 min): 21 % of control untreated flies
Survival (% of control untreated flies) (Ceratitis capitata flies [7]; sunlight (average 1150 μE s^−1m^−2) 30 min): 10 % of control untreated flies
Survival (% of control untreated flies) (Ceratitis capitata flies [7]; sunlight (average 1150 μE s^−1m^−2) 45 min): 0 % of control untreated flies
Survival (% of control untreated flies) (Ceratitis capitata flies [7]; sunlight (average 1150 μE s^−1m^−2) 60 min): 0 % of control untreated flies
